For one data set, the target named is T1, LSS (Rattus norvegicus, UniProt P48450).
T1 sequence (P48450 1-733): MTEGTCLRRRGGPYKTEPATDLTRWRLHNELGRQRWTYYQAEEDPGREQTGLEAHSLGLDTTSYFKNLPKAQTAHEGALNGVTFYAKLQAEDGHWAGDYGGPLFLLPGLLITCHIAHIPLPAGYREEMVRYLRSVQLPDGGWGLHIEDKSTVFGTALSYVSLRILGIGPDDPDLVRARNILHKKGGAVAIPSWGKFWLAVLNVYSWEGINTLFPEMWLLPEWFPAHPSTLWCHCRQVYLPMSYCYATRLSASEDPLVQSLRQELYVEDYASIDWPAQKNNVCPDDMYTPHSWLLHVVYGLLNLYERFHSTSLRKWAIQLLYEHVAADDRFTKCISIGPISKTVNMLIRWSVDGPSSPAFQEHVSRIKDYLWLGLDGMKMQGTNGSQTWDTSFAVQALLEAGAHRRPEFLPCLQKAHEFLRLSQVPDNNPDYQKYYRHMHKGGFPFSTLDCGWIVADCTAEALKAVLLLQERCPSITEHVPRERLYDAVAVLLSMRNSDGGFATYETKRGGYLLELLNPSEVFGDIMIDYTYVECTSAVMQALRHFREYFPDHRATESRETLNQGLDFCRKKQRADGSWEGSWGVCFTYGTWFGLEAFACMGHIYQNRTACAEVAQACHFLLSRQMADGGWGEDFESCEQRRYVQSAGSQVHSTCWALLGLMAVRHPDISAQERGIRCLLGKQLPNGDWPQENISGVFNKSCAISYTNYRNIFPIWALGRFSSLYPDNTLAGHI
The following applies: cited from earlier work.

Data set [1] deals with cataract-causing mutant crystallin proteins. Nature of the data set: Intracellular aggregation of mutant crystallins in HeLa cells. It counts as cell-based, human. Conditions: HeLa cells co-transfected with LSS and crystallin mutant; 40 μM sterols 2 h, then 12 h; lanosterol P<1×10^−4, cholesterol P>0.1. As for the experimental part: (§1) FIG. 9A, FIG. 9B, and FIG. 9C show inhibition of crystallin mutant aggregation by wild-type LSS and lanosterol in HLEB-3 cells (FIG. 9A) or HeLa cells (FIG. 9B). Cells co-transfected with LSS and crystallin mutant constructs were cultured for 24 h before assaying for aggregates. The rescue experiments were performed by addition of 40 […] μM sterols (lanosterol or cholesterol) to the cell culture medium for 2 h, the sterol medium was then replaced with fresh culture medium and the cells were cultured for a further 12 h. The percentage of cells with crystallin aggregates were calculated from ten randomly selected viewing fields. The values of the wild-type LSS group, mutant group, or mutant plus lanosterol group were calculated. […] After transfection for 4 h and incubation in fresh culture medium for another 24 h, the cells were lysed and centrifuged to separate supernatant and insoluble fractions. LSS and crystallin fusion proteins were detected by antibodies against Flag and GFP, respectively. Red arrows indicate higher crystalline content in the soluble fraction versus in the insoluble fraction in cells containing the WT-LSS.
(§2) Cells were transfected with various crystallin constructs for 4 h and cultured for an additional 24 h in fresh culture medium. Then the cells were treated with 10, 20 and 40 μM lanosterol in 1% (HLEB-3 cells) or 2% DMSO (HeLa cells) for 2 h and cultured for another 12 h. Cells treated with 1% (HLEB-3 cells) or 2% DMSO (HeLa cells) were used as the controls. Formation of intracellular aggregates of various crystallin proteins was visualized by fluorescence of GFP (green) and the nuclei were stained with Hoechst 33342 (blue). Typical intracellular aggregates are indicated by arrows.
(§3) The impact of LSS and lanosterol on intracellular crystallin aggregation were evaluated in single-blinded observer studies. Experiments have been repeated at least three times. P values were calculated using Student's t-tests. Fluorescence microscopy. […]

For data set [2] the test system is unchanged. Put plainly: Intracellular aggregation of mutant crystallins in transfected human lens progenitor cells. It counts as cell-based. As for the experimental part: To assess the effect of lanosterol on crystallin aggregation, human lens progenitor cells were co-transfected with LSS and various crystallin constructs for 4 h. Cells co-transfected with crystallin mutants and pcDNA3.1-N-Flag were used as a control. Human lens progenitor cells co-transfected with LSS and crystallin mutant constructs were cultured for 12 h before assaying for aggregates. The rescue experiments were performed after 16 h by addition of 40 mM sterols (lanosterol or cholesterol, Sigma-Aldrich) to the cell culture medium for 2 h, which was then replaced with fresh culture medium and cells cultured for 24 h. The percentage of cells with crystallin aggregates was calculated from ten randomly selected viewing fields. The values of the wild-type LSS group, mutant group, and mutant plus lanosterol group were calculated. Cells treated with 1% DMSO were used as the controls.
The impact of LSS and lanosterol on intracellular crystallin aggregation were evaluated in single-blinded observer studies. Experiments have been repeated at least three times. P values were calculated using Student's t-tests. Fluorescence microscopy. Equal amounts of the human lens progenitor cells, HLEB-3 cells or HeLa cells were seeded on glass coverslips pretreated with TC (Solarbio). After culturing for 24 h to reach 90% confluency, the cells were transfected with plasmids containing various LSS or crystallin genes or co-transfected with plasmids containing a certain crystallin gene and those containing the wild-type or mutated LSS gene. The controls were cells transfected with the plasmids containing peGFP-N1 and/or peDNA3.1-N-Flag. Both transfection and co-transfection were performed using Lipofectamine 3000 (Invitrogen) according to the instructions from the manufacturer.
The effect of lanosterol or cholesterol on the aggresome formation of various crystallins was studied by transfecting the cells with plasmids containing various crystallin genes. The cells were incubated for 24 h to enable efficient protein expression and aggresome formation. The cells were then treated with 0-40 mM sterols in 1% (for human lens progenitor cells) or 2% DMSO (for HeLa cells). Cells treated with 1% or 2% DMSO were used as the control. After treatment for 2 h, the media was replaced with fresh media. After 12 h, the cells were used for microscopy analysis.
The microscopy samples were prepared by washing the slips with phosphate buffered saline (PBS) three times. The cells were fixed with 4% paraformaldehyde for 40 min followed by another three washes with PBS. The cells were permeabilized with 0.1% Triton X-100 (Sigma) in PBS for 10 min and blocked with 5% normal goat serum in PBS for 1 h at 37° C. […] The mounted cells were analysed using a Carl Zeiss LSM 710 confocal microscope.

In data set [3] the target is T2, αA-crystallin (Y118D) aggregates (Homo sapiens, UniProt P02489, Y118D).
T2 construct: expressed in transfected cells; host or cells: human lens progenitor cells, G418-selected
T2 sequence (P02489 1-173 Y118D): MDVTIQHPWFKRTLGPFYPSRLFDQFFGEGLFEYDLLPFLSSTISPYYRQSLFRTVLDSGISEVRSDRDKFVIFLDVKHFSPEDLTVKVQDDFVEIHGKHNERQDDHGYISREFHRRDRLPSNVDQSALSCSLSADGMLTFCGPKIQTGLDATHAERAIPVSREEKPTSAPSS
Nature of the data set: Serial live-cell imaging, single-particle tracking of aggregates. Conditions: human lens progenitor cells; 40 mM sterol in 1% DMSO for 4 h. It counts as cell-based. As for the experimental part:
Live-cell imaging. Human lens progenitor cells were transfected with plasmids containing αA-crystallin (Y118D) mutant. After a 24 h transfection period, the cells with stable expression of αA-crystallin (Y118D) mutant were screen by incubation in culture medium containing 0.8 mg ml^−1 G418 for 7 days. Then the obtained cells were seeded onto glass bottom cell culture dishes (In Vitro Scientific) and treated with 1% DMSO, 40 mM cholesterol in 1% DMSO or 40 mM lanosterol in 1% DMSO for 4 h. Fresh culture medium was added, and the cells were analysed by serial live-cell imaging. Live-cell images were viewed with an Olympus IX81 microscope and captured with CellSens Dimension soft-ware (Olympus). Quantitative analysis of the size of aggregates was performed by measuring the fluorescence intensity of p62-positive aggregates using single-par-tide tracking in live-cell imaging. The live-cell imaging was conducted using three biological replicates with 1-8 repetitions each.

In data set [4] the test system is cataract-causing mutant crystallin proteins. Nature of the data set: Intracellular aggregation of mutant crystallins in HLEB-3 cells. It counts as cell-based, human. The following applies: HLEB-3 cells co-transfected with LSS and crystallin mutant; 40 μM sterols 2 h, then 12 h; lanosterol P<1×10^−4, cholesterol P>0.1. The protocol:
as §1, §2, §3

Data set [5] concerns amyloid-like fibrils of crystallin proteins. Put plainly: Re-dissolution of pre-formed amyloid-like fibrils (ThT fluorescence, TEM, turbidity). It counts as biochemical, human. The following applies: 0.2 mg/ml aggregates; 500 μM sterols in 500 μM DPPC liposome (b129 prints 500 mM), 37° C., 24 h; TEM and ThT fluorescence; concentration-dependent.
Procedure: Crystallin aggregates were formed by incubating 5 mg ml^−1 protein solution at 60° C. for 2 h (α-crystallins) or 37° C. for 48 h (β- and γ-crystallins) in the presence of 1 M guanidine chloride. The preformed aggregates were re-suspended in PBS at a final protein concentration of 0.2 mg ml^−1 and were treated with 500 μM sterols in 500 μM DPPC liposome and incubated at 37° C. for 24 h. Aggregates treated with 500 μM DPPC liposome only were used as the controls. […] Aggregates treated with 500 μM DPPC liposome only were used as the controls.
All protein samples were prepared in 20 mM PBS buffer containing 150 mM NaCl, 1 mM EDTA and 1 mM DTT.
Protein aggregation and aggregate dissociation. The aggregates of the wild-type and mutated αA- and αB-crystallin proteins were obtained by heating the protein solutions containing 1 M guanidine chloride (ultrapure, Sigma-Aldrich) at a con-centration of 5 mg/ml at 60° C. for 2 h. The aggregates of the wild-type and mutated b- and c-crystallins were prepared by heating the protein solutions containing 1 M guanidine chloride at 37° C. for 48 h. The formation of aggregates was confirmed by ThT fluorescence, turbidity (absorbance at 400 nm) and transmission electron microscopy (TEM) observations. […] After 24 h of treatment, the protein solutions were used for ThT fluorescence, turbidity and negatively stained TEM observations. […]

These results are taken from US10471076B2, “Compositions and methods to treat vision disorders” (YouHealth Biotech, Limited, priority 2014, dated 2019).

Molecules are shown by their SMILES. “Also recorded” adds a separate entry of the source.

As for `CCN(CC)CCO[C@H]1CC[C@@]2(C)C(=CC[C@@H]3[C@@H]2CC[C@]2(C)C(=O)CC[C@@H]32)C1` [U18666A], the “cataract formation by inhibition of LSS” value on LSS is reported as “cause cataracts”.

With `CC(C)CCC[C@@H](C)[C@H]1CC[C@H]2[C@@H]3CC=C4C[C@@H](O)CC[C@]4(C)[C@H]3CC[C@]12C` [cholesterol, reference compound], the “percentage of cells with crystallin aggregates versus control group (rescue)” value in data set [1] and in data set [4] was “showed no difference to the control group” in each case. The “intracellular aggregation / aggresome formation of crystallin proteins” value in data set [2] (0-40 mM sterols in 1% DMSO for 2 h, then 12 h, concentration-dependent, n=3, lanosterol P<1×10^−4, cholesterol P>0.1) is on record as “had no effect; also recorded: did not reduce intracellular aggregation”. In addition, in data set [2] (40 mM sterols in culture medium for 2 h, then fresh medium 24 h), the “crystallin aggregation in cells co-expressing an LSS mutant and a mutant crystallin (rescue by sterol)” value was “but not cholesterol”. The “effect on αA-crystallin (Y118D) aggregates in live cells” value in data set [3] is given as “did not reduce aggresome formation”. Moreover, the “re-dissolution of aggregated crystallin proteins from amyloid-like fibrils” value in data set [5] was “but not cholesterol”.
